# According to US9580430B2, “9H-pyrimido[4,5-B]indoles and related analogs as BET bromodomain inhibitors” (THE REGENTS OF THE UNIVERSITY OF MICHIGAN, priority 2014, dated 2017):
# Where two headings read alike, the source gives them in different places.
# How the values were obtained:
# MDA-MB-436 = test: Cell growth inhibition, MDA-MB-436 breast cancer cells (WST-8); assay type: cell-based; details: Homo sapiens, 4 days
# Method in brief: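 IC50 was computed from WST-8-based cell counting in MDA-MB-436 cells, with absorbance read at 450 nm.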
# [1] = system: VCaP prostate cancer cells; test: Cell growth inhibition, VCaP prostate cancer cells (Cell-Titer GLO); assay type: cell-based; details: Homo sapiens, VCaP; 96 h incubation; read-out: IC50 (nM) VCaP Cell Line (CellTiter-Glo assay)
# Description: For prostate cancer cell lines, VCaP prostate cancer cells were grown in DMEM with Glutamax (Gibco) supplemented with 10% FBS (Invitrogen) in 5% CO2 cell culture incubator. All cell lines were tested and found to be free of mycoplasma contamination. Cells were seeded in 96-well plates at 2,000-10,000 cells per well (optimum density for growth) in a total volume of […] media containing 10% FBS. Serially diluted compounds in […] media were added to the cells 12 h later. […] The values were normalized and IC50 was calculated using GraphPad Prism software.
# Cells were seeded in 96-well plates at 2000-10,000 cells/well (optimum density for growth) in a total volume of 100 μl media containing 10% FBS. Serially diluted compounds in 100 μl media were added to the cells 12 h later. Following 96 h. incubation, cell viability was assessed by Cell-Titer GLO (Promega). The values were normalized and IC50 was calculated using GraphPad Prism software. […] After 12 days cells were fixed with methanol, stained with crystal violet and photographed. For colorimetric assays, the stained wells were treated with 500 μl 10% acetic acid and the absorbance was measured at 560 nm using a spectrophotometer.
# recombinant BRD4 BD1 = target: T1, recombinant BRD4 BD1 (Homo sapiens, UniProt O60885); test: Competitive fluorescence-polarization (FP) binding assay, BRD4 BD1; details: for Ki: read-out: Binding affinities (FP) BRD4BD1 Ki; as to IC50 (nM) BRD4 BD1: probe 1.5 nM
# T1 construct: for recombinant BRD4 BD1 and BRD4 BD2 proteins
# Method in brief: (§1)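 Buffer: 100 mM potassium phosphate, pH 6.5, 0.01% Triton X-100; compounds added in buffer with 40% ethylene glycol to preformed complex of fluorescent probe with BRD4 BD1 (10 nM final) or BD2 (6 nM final). After 30 min at room temperature, polarization read. IC50 from nonlinear fits of competition curves, with Ki.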
# recombinant BRD4 BD2 = target: T2, recombinant BRD4 BD2 (Homo sapiens, UniProt O60885); test: Competitive fluorescence-polarization (FP) binding assay, BRD4 BD2; details: for Ki: read-out: Binding affinities (FP) BRD4BD2 Ki; as to IC50 (nM) BRD4 BD2: probe 1.5 nM
# T2 construct: for recombinant BRD4 BD1 and BRD4 BD2 proteins
# Method in brief: as §1
# MOLM-13 = test: Cell growth inhibition, MOLM-13 leukemia cells (CellTiter-Glo); assay type: cell-based; details: Homo sapiens, MOLM-13, 96 h; 4 days; read-out: IC50 (nM) MOLM-13 Cell Line (CellTiter-Glo assay)
# Method in brief: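 Luminescent ATP-based viability (CellTiter-Glo, 10-20 min at room temperature) in compound-treated MOLM-13 cells; the half-maximal inhibitory concentration was calculated from the readout.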
# LNCaP = test: Cell growth inhibition, LNCaP prostate cancer cells (Cell-Titer GLO); assay type: cell-based; details: Homo sapiens, read-out: Cellular data LNCaP IC50
# BRD2/3/4 = test: ChIP-seq of BRD2/3/4 in VCaP cells; assay type: cell-based; details: 500 nM, 12 h
# Description: The ChIP assays for BRD2, BRD3, BRD4, AR, RNA PolII, ERG and H3K27ac were performed using HighCell ChIP kit (Diagenode) according to manufacturer's protocol. […] Next, cells were cross-linked for 10 min. with 1% formaldehyde. […] Chromatin equivalent to 5×10^6 cells were used for ChIP using different antibodies. ChIP DNA was isolated (IPure Kit, Diagenode) from samples by incubation with the antibody at 4° C. overnight followed by wash and reversal of cross-linking. The ChIP-seq sample preparation for sequencing was performed according to the manufacturer's instructions (Illumina). […] A single A-base was added to fragment ends by Klenow fragment (3′ to 5′ exo minus; NEB) followed by ligation of Illumina adaptors (Quick ligase, NEB). The adaptor-modified DNA fragments were enriched by PCR using the Illumina Barcode primers and Phusion DNA polymerase (NEB). PCR products were size selected using 3% NuSieve agarose gels (Lonza) followed by gel extraction using QIAEX II reagents (QIAGEN). Libraries were quantified with the Bioanalyzer 2100 (Agilent) and sequenced on the Illumina HiSeq 2000 Sequencer (100 nucleotide read length).
# [2] = MDA-MB-436, 96 h, read-out: IC50 (nM) MDA-MB-436 Cell Line (WST assay)
# [3] = competitive FP assay, protein 10 nM, probe […], read-out: IC50 (nM) BRD4 BD1
# [4] = competitive FP assay, protein 6 nM, probe […], read-out: IC50 (nM) BRD4 BD2
# [5] = 96 h, MDA-MB-436 cells, read-out: Cellular data MDA-MB-436 IC50
# [6] = FP competitive binding, BRD4 BD1, read-out: Binding affinities (FP) BRD4BD1 IC50
# [7] = FP competitive binding, BRD4 BD1
# [8] = FP competitive binding, BRD4 BD2, read-out: Binding affinities (FP) BRD4BD2 IC50
# [9] = FP competitive binding, BRD4 BD2
IC50 (MDA-MB-436; [2]) [nM],IC50 [1] [nM],IC50 (recombinant BRD4 BD1; [3]) [nM],IC50 (recombinant BRD4 BD2; [4]) [nM],IC50 (MOLM-13) [nM],IC50 (MDA-MB-436; [5]) [nM],IC50 (recombinant BRD4 BD1; [6]) [nM],Ki (recombinant BRD4 BD1; [7]) [nM],IC50 (LNCaP) [nM],IC50 (recombinant BRD4 BD2; [8]) [nM],Ki (recombinant BRD4 BD2; [9]) [nM],Compound,recruitment of BRD2/3/4 to the chromatin (BRD2/3/4)
–,–,–,–,–,12,2,< 1,7,2.3,< 1,"COc1cc2c(cc1-c1c(C)noc1C)[nH]c1nc(N)nc(Nc3c4c(nn3C(C)C)CCC4)c12 [Cpd. No. 292, 7-(3,5-dimethylisoxazol-4-yl)-N4-(2-isopropyl-2,4,5,6-tetrahydrocyclopenta[c]pyrazol-3-yl)-6-methoxy-9H-pyrimido[4,5-b]indole-2,4-diamine]",–
–,–,–,–,–,19,4.8,< 1,12,4.5,< 1,"CCn1nc(C2CC2)cc1Nc1nc(N)nc2[nH]c3cc(-c4c(C)noc4C)c(OC)cc3c12 [Cpd. No. 290, N4-(3-cyclopropyl-1-ethyl-1H-pyrazol-5-yl)-7-(3,5-dimethylisoxazol-4-yl)-6-methoxy-9H-pyrimido[4,5-b]indole-2,4-diamine]",–
–,–,–,–,–,141,18,4.1,136,40,13,"COc1cc2c([nH]c3ccnc(Nc4cc(C5CC5)nn4C)c32)c(F)c1-c1c(C)noc1C [Cpd. No. 309, N-(3-cyclopropyl-1-methyl-1H-pyrazol-5-yl)-7-(3,5-dimethylisoxazol-4-yl)-6-fluoro-8-methoxy-5H-pyrido[4,3-b]indol-1-amine]",–
–,–,–,–,–,646,199,68,674,214,67,"COc1nc2c(cc1-c1c(C)noc1C)[nH]c1nc(C)nc(Nc3cc(C4CC4)nn3C)c12 [compound 322, N-(3-cyclopropyl-1-methyl-1H-pyrazol-5-yl)-7-(3,5-dimethylisoxazol-4-yl)-6-methoxy-2-methyl-9H-pyrido[2′,3′:4,5]pyrrolo[2,3-d] pyrimidin-4-amine]",–
–,–,–,–,–,13,4.9,< 1,37,1.6,< 1,"COCCOCc1nc(Nc2cc(C3CC3)nn2C)c2c(n1)[nH]c1cc(-c3c(C)noc3C)c(OC)cc12 [Cpd. No. 288, N-(3-cyclopropyl-1-methyl-1H-pyrazol-5-yl)-7-(3,5-dimethylisoxazol-4-yl)-6-methoxy-2-((2-methoxyethoxy)methyl)-9H-pyrimido[4,5-b]indol-4-amine]",–
–,–,–,–,–,57,2.4,< 1,130,2.2,< 1,"COc1cc2c(cc1-c1c(C)noc1C)[nH]c1nc(CS(C)(=O)=O)nc(Nc3cc(C4CC4)nn3C)c12 [Cpd. No. 289, N-(3-cyclopropyl-1-methyl-1H-pyrazol-5-yl)-7-(3,5-dimethylisoxazol-4-yl)-6-methoxy-2-((methylsulfonyl)methyl)-9H-pyrimido[4,5-b]indol-4-amine]",–
–,–,–,–,–,130,16,3.8,59,18,4.3,"COc1cc2c([nH]c3nc(C)nc(Nc4cc(C5CC5)nn4C)c32)c(F)c1-c1c(C)noc1C [Cpd. No. 307, N-(3-cyclopropyl-1-methyl-1H-pyrazol-5-yl)-7-(3,5-dimethylisoxazol-4-yl)-8-fluoro-6-methoxy-2-methyl-9H-pyrimido[4,5-b]indol-4-amine]",–

# Further lines, the compound ahead of its results:
Compound,IC50 (MDA-MB-436; [2]) [nM],IC50 [1] [nM],IC50 (recombinant BRD4 BD1; [3]) [nM],IC50 (recombinant BRD4 BD2; [4]) [nM],IC50 (MOLM-13) [nM],IC50 (MDA-MB-436; [5]) [nM],IC50 (recombinant BRD4 BD1; [6]) [nM],Ki (recombinant BRD4 BD1; [7]) [nM],IC50 (LNCaP) [nM],IC50 (recombinant BRD4 BD2; [8]) [nM],Ki (recombinant BRD4 BD2; [9]) [nM],recruitment of BRD2/3/4 to the chromatin (BRD2/3/4)
"COc1cc2c(cc1-c1c(C)noc1C)[nH]c1nc(C)nc(Nc3c(C)c(C)nn3C(C)(C)C)c12 [Cpd. No. 185, N-(1-(tert-butyl)-3,4-dimethyl-1H-pyrazol-5-yl)-7-(3,5-dimethylisoxazol-4-yl)-6-methoxy-2-methyl-9H-pyrimido[4,5-b]indol-4-amine]",71,64.7,4.9,12.3,17,–,–,–,–,–,–,–
"COc1cc2c(cc1-c1c(C)noc1C)[nH]c1nc(C)nc(Nc3cc(C4CC4)nn3C3CCOCC3)c12 [Cpd. No. 283, N-(3-cyclopropyl-1-(tetrahydro-2H-pyran-4-yl)-1H-pyrazol-5-yl)-7-(3,5-dimethylisoxazol-4-yl)-6-methoxy-2-methyl-9H-pyrimido[4,5-b]indol-4-amine]",–,–,–,–,–,19,4.5,0.6,12,5,0.9,–
"COCCc1nc(Nc2cc(C3CC3)nn2C)c2c(n1)[nH]c1cc(-c3c(C)noc3C)c(OC)cc12 [Cpd. No. 287, N-(3-cyclopropyl-1-methyl-1H-pyrazol-5-yl)-7-(3,5-dimethylisoxazol-4-yl)-6-methoxy-2-(2-methoxyethyl)-9H-pyrimido[4,5-b]indol-4-amine]",–,–,–,–,–,58,3.1,< 1,81,1.4,< 1,–
"COc1cc2c(cc1-c1c(C)noc1C)[nH]c1nc(C)nc(Nc3cc(C4CC4)nn3CC3COCCO3)c12 (stereo not drawn) [Cpd. No. 282, N-(1-((1,4-dioxan-2-yl)methyl)-3-cyclopropyl-1H-pyrazol-5-yl)-7-(3,5-dimethylisoxazol-4-yl)-6-methoxy-2-methyl-9H-pyrimido[4,5-b]indol-4-amine]",–,–,–,–,–,33,6.1,1.3,22,0.5,1,–
COc1cc2c(cc1-c1c(C)noc1C)[nH]c1nc(C)nc(Nc3cc(C4CC4)nn3C[C@H](O)CO)c12 [Cpd. No. 281],–,–,–,–,–,351,6.1,2,116,3.6,5.7,–
"CCn1nc(C2CC2)cc1Nc1nc(C)nc2[nH]c3cc(-c4c(C)noc4C)c(OC)cc3c12 [Cpd. No. 144, N-(3-Cyclopropyl-1-ethyl-1H-pyrazol-5-yl)-7-(3,5-dimethylisoxazol-4-yl)-6-methoxy-2-methyl-9H-pyrimido[4,5-b]indol-4-amine]",14.5,53.8,2.1,0.7,3,–,–,–,–,–,–,–
"CCn1nc2c(c1Nc1nc(C)nc3[nH]c4cc(-c5c(C)noc5C)c(OC)cc4c13)CCC2 [Cpd. No. 141, 7-(3,5-Dimethylisoxazol-4-yl)-N-(2-ethyl-2,4,5,6-tetrahydrocyclopenta[c]pyrazol-3-yl)-6-methoxy-2-methyl-9H-pyrimido[4,5-b]indol-4-amine]",13.6,19.3,4.6,1.1,1.6,–,–,–,–,–,–,–
CCNC(=O)C[C@@H]1N=C(c2ccc(Cl)cc2)c2cc(OC)ccc2-n2c(C)nnc21 [I-BET762],–,–,–,–,–,–,–,–,–,–,–,reduction in the recruitment
"COc1cc2c(cc1-c1c(C)noc1C)[nH]c1nc(C)nc(Nc3c4c(nn3C(C)C)CCC4)c12 [Cpd. No. 137, 7-(3,5-Dimethylisoxazol-4-yl)-N-(2-isopropyl-2,4,5,6-tetrahydrocyclopenta[c]pyrazol-3-yl)-6-methoxy-2-methyl-9H-pyrimido[4,5-b]indol-4-amine]",11.3,23.4,4.5,1.2,4.3,–,–,–,–,–,–,–
